Data taken from ChEMBL document CHEMBL1201862, “PubChem BioAssay data set” (2004).
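Protocol summary: plate cells (96-well), add compound at 5 concentrations, incubate 48 h, interpolate endpoints linearly. GI50: concentration for 50% inhibition of growth.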 Calls of active or inactive are those of the source. No stated cut-off is given here; in the data, active = GI50 up to about 1.1 µM and inactive = higher. Non-standard residues stand in square brackets, D forms with d. Residues, ends and D or L forms follow the SMILES beside them. *: point of attachment. Ac5c = NC1(C(=O)O)CCCC1; Boc = CC(C)(C)OC(=O)*; tBu = CC(C)(C)*

Columns and labels:
Test in all cases: inhibition of tumour cell growth, NCI panel, 48 h
MDA-N = test system: MDA-N
OVCAR-8 = test system: OVCAR-8
SK-MEL-28 = test system: SK-MEL-28
SK-MEL-5 = test system: SK-MEL-5
NCI-H460 = test system: NCI-H460
LOX IMVI = test system: LOX IMVI
HOP-92 = test system: HOP-92
SK-MEL-2 = test system: SK-MEL-2
CCRF-CEM = test system: CCRF-CEM
MCF7 = test system: MCF7
HCT-116 = test system: HCT-116
OVCAR-5 = test system: OVCAR-5
ACHN = test system: ACHN
A498 = test system: A498
T47D = test system: T47D
SK-OV-3 = test system: SK-OV-3
MDA-MB-435 = test system: MDA-MB-435
SR = test system: SR
TK-10 = test system: TK-10
BT-549 = test system: BT-549

SMILES	GI50 (MDA-N)	GI50 (OVCAR-8)	GI50 (SK-MEL-28)	GI50 (SK-MEL-5)	GI50 (NCI-H460)	GI50 (LOX IMVI)	GI50 (HOP-92)	GI50 (SK-MEL-2)	GI50 (CCRF-CEM)	GI50 (MCF7)	GI50 (HCT-116)	GI50 (OVCAR-5)	GI50 (ACHN)	GI50 (A498)	GI50 (T47D)	GI50 (SK-OV-3)	GI50 (MDA-MB-435)	GI50 (SR)	GI50 (TK-10)	GI50 (BT-549)
O=c1[nH]nc(Cc2ccc(Cl)cc2)n1/N=C/c1c[nH]c2ccccc12	> 100 µM (inactive)	> 100 µM (inactive)	> 100 µM (inactive)	> 100 µM (inactive)	> 100 µM (inactive)	> 100 µM (inactive)	> 100 µM (inactive)	> 100 µM (inactive)	> 100 µM (inactive)	> 100 µM (inactive)	> 100 µM (inactive)	> 100 µM (inactive)	> 100 µM (inactive)	> 100 µM (inactive)	> 100 µM (inactive)	> 100 µM (inactive)	> 100 µM (inactive)	> 100 µM (inactive)	> 100 µM (inactive)	
C/C(=N/NC(N)=S)C(CN1CCOCC1)C(C1=C(O)c2ccccc2OC1)c1ccccc1 (stereo not drawn)		> 100 µM (inactive)		> 100 µM (inactive)	> 100 µM (inactive)	> 100 µM (inactive)	71.3 µM (inactive)	> 100 µM (inactive)	60.7 µM (inactive)		85.5 µM (inactive)	> 100 µM (inactive)	> 100 µM (inactive)	> 100 µM (inactive)		> 100 µM (inactive)		25.4 µM (inactive)	> 100 µM (inactive)	
COc1ccc(NCC#N)cc1		> 100 µM (inactive)	> 100 µM (inactive)	> 100 µM (inactive)	> 100 µM (inactive)	> 100 µM (inactive)	> 100 µM (inactive)	> 100 µM (inactive)	> 100 µM (inactive)		> 100 µM (inactive)	> 100 µM (inactive)	> 100 µM (inactive)	> 100 µM (inactive)		> 100 µM (inactive)		> 100 µM (inactive)	> 100 µM (inactive)	
Cc1cc(-c2no[n+]([O-])c2-c2cc(C)sc2S(C)(=O)=O)c(S(C)(=O)=O)s1		> 100 µM (inactive)	> 100 µM (inactive)	> 100 µM (inactive)	> 100 µM (inactive)	> 100 µM (inactive)	> 100 µM (inactive)	> 100 µM (inactive)	> 100 µM (inactive)		> 100 µM (inactive)	> 100 µM (inactive)	> 100 µM (inactive)	> 100 µM (inactive)	89.5 µM (inactive)	> 100 µM (inactive)	> 100 µM (inactive)	> 100 µM (inactive)	> 100 µM (inactive)	
O=c1oc2ccc3ccccc3c2cc1-c1nnc(Nc2ccccc2)s1					18.7 µM (inactive)			18.9 µM (inactive)		34.8 µM (inactive)	22.5 µM (inactive)	> 100 µM (inactive)	13.2 µM (inactive)	1.27 µM (inactive)	77.1 µM (inactive)		78.3 µM (inactive)	19.3 µM (inactive)	16.9 µM (inactive)	33.5 µM (inactive)
CCC1=CCC23C(=O)C=CC(=O)C2(C1)C(=O)c1cccc(OC)c1C3=O (stereo not drawn)	16.5 µM (inactive)	15.2 µM (inactive)	18.2 µM (inactive)	16.8 µM (inactive)	28.2 µM (inactive)	15.1 µM (inactive)	15.1 µM (inactive)	22.7 µM (inactive)	3.26 µM (inactive)	14.3 µM (inactive)	14.6 µM (inactive)	16.2 µM (inactive)	14.3 µM (inactive)		0.409 µM (active)		17.1 µM (inactive)	9.82 µM (inactive)	19.1 µM (inactive)	
CC(OC(C)(C)C)C1NC(=O)C(CCCCNC(=O)OC(C)(C)C)NC(=O)C(Cc2c[nH]c3ccccc23)NC(=O)C(Cc2ccccc2)NC(=O)C2(CCCC2)NC(=O)C(Cc2ccccc2)NC1=O (stereo not drawn) (cyclo([Ac5c]FWK(Boc)T(tBu)F); configuration not given here)	43.2 µM (inactive)	50.2 µM (inactive)	22.3 µM (inactive)	15.9 µM (inactive)	36.7 µM (inactive)	19.2 µM (inactive)	23.5 µM (inactive)		28.2 µM (inactive)	18.5 µM (inactive)	33.3 µM (inactive)	72.6 µM (inactive)	32.4 µM (inactive)		10.4 µM (inactive)	68.4 µM (inactive)	14.7 µM (inactive)	32.2 µM (inactive)	24.8 µM (inactive)	
C[C@@H]1OC2(O)[C@@H]3CCCN3C(=O)N(Cc3ccccc3)N2C1=O (stereo partly drawn)	> 100 µM (inactive)	> 100 µM (inactive)	> 100 µM (inactive)	> 100 µM (inactive)	> 100 µM (inactive)	> 100 µM (inactive)	> 100 µM (inactive)	> 100 µM (inactive)	> 100 µM (inactive)	> 100 µM (inactive)	> 100 µM (inactive)	> 100 µM (inactive)	> 100 µM (inactive)	> 100 µM (inactive)	> 100 µM (inactive)	> 100 µM (inactive)	> 100 µM (inactive)	> 100 µM (inactive)	> 100 µM (inactive)	
NNC(=O)CC(=O)Nc1ccc(S(=O)(=O)c2ccc(NC(=O)CC(=O)NN)cc2)cc1		> 100 µM (inactive)	> 100 µM (inactive)	> 100 µM (inactive)	> 100 µM (inactive)		> 100 µM (inactive)	> 100 µM (inactive)	> 100 µM (inactive)		> 100 µM (inactive)	> 100 µM (inactive)	> 100 µM (inactive)	> 100 µM (inactive)	> 100 µM (inactive)	> 100 µM (inactive)	> 100 µM (inactive)		> 100 µM (inactive)	> 100 µM (inactive)
COc1cc2c(cc1O)-c1c(cnn1-c1ccc([N+](=O)[O-])cc1)CCC2		19.7 µM (inactive)	20.4 µM (inactive)	13.4 µM (inactive)	10.3 µM (inactive)	12.6 µM (inactive)	3.75 µM (inactive)	17.4 µM (inactive)	2.94 µM (inactive)	26.8 µM (inactive)	18.3 µM (inactive)	22.4 µM (inactive)	1.82 µM (inactive)	23 µM (inactive)	19.8 µM (inactive)	44.3 µM (inactive)	17.4 µM (inactive)		8.83 µM (inactive)	21.6 µM (inactive)
O=C1[C@@H]2C(c3ccccc3[N+](=O)[O-])=[N+](c3ccccc3)O[C@@H]2C(=O)N1c1ccc(Cc2ccc(N3C(=O)[C@H]4C(c5ccccc5[N+](=O)[O-])=[N+](c5ccccc5)O[C@H]4C3=O)cc2)cc1		> 100 µM (inactive)	> 100 µM (inactive)	43.1 µM (inactive)	> 100 µM (inactive)	> 100 µM (inactive)	49 µM (inactive)	> 100 µM (inactive)	> 100 µM (inactive)		> 100 µM (inactive)	> 100 µM (inactive)	> 100 µM (inactive)	> 100 µM (inactive)		> 100 µM (inactive)		> 100 µM (inactive)	> 100 µM (inactive)	
O=c1c2ccccc2nc(-c2ccccc2)n1NC(=S)Nc1cccc(Cl)c1		> 100 µM (inactive)	> 100 µM (inactive)	> 100 µM (inactive)	> 100 µM (inactive)	> 100 µM (inactive)	31.8 µM (inactive)	> 100 µM (inactive)	> 100 µM (inactive)		95.7 µM (inactive)	> 100 µM (inactive)	> 100 µM (inactive)	> 100 µM (inactive)		40.4 µM (inactive)		> 100 µM (inactive)	36.6 µM (inactive)	
CC1=NN(c2nc(N)nc(CS(C)(=O)=O)n2)C(C)(C)C1		> 100 µM (inactive)	> 100 µM (inactive)	> 100 µM (inactive)	> 100 µM (inactive)	> 100 µM (inactive)	> 100 µM (inactive)	> 100 µM (inactive)	> 100 µM (inactive)	> 100 µM (inactive)	> 100 µM (inactive)		> 100 µM (inactive)	> 100 µM (inactive)	> 100 µM (inactive)	> 100 µM (inactive)	> 100 µM (inactive)	> 100 µM (inactive)	> 100 µM (inactive)	> 100 µM (inactive)
CC(C)[Si](OC1=C(C(=O)N(C)c2ccccc2Cl)CCCC1)(C(C)C)C(C)C	16.4 µM (inactive)	16.2 µM (inactive)	19 µM (inactive)	13.8 µM (inactive)	12.9 µM (inactive)	15.7 µM (inactive)	13.3 µM (inactive)	14.1 µM (inactive)	12.7 µM (inactive)	13.2 µM (inactive)		12.8 µM (inactive)	15.5 µM (inactive)	16.9 µM (inactive)	2.55 µM (inactive)	14.7 µM (inactive)	16.4 µM (inactive)	5.43 µM (inactive)	15.1 µM (inactive)	
O=[N+]([O-])c1ccc(-c2ccc(-c3csc(Nc4ccccc4)n3)o2)cc1		19.5 µM (inactive)	17.6 µM (inactive)	19.5 µM (inactive)	34.8 µM (inactive)	18.5 µM (inactive)	19.5 µM (inactive)	19.2 µM (inactive)	2.93 µM (inactive)		21.5 µM (inactive)	17.7 µM (inactive)	17.3 µM (inactive)	17.9 µM (inactive)		> 100 µM (inactive)		1.9 µM (inactive)	19.1 µM (inactive)	
N=c1c2c(ncn1N)Oc1c(c(-c3ccccc3)nn1-c1ccccc1)C2c1ccc(Cl)cc1 (stereo not drawn)	1.82 µM (inactive)	1.95 µM (inactive)	1.76 µM (inactive)		1.42 µM (inactive)	1.48 µM (inactive)	1.71 µM (inactive)	1.69 µM (inactive)	2.47 µM (inactive)	1.44 µM (inactive)	1.49 µM (inactive)	1.5 µM (inactive)	2.04 µM (inactive)	1.86 µM (inactive)	2.3 µM (inactive)	1.85 µM (inactive)	1.62 µM (inactive)	0.918 µM (active)	1.76 µM (inactive)	
